# Results as given in US20250326639A1, “METHOD FOR PRODUCING HYDROGEN PEROXIDE” (ARKEMA FRANCE, priority 2022, published 2025).
# Key:
# [1] = Flash point, closed-cup apparatus, ASTM-D3278; type: physicochemical
# Description: The flash point may be determined using a closed-cup apparatus in accordance with the standard ASTM-D3278.
# [2] = Solubility in water by coulometric Karl Fischer titration, ASTM-D6304; type: physicochemical
# Description: The solubility in water may be determined by coulometric Karl Fischer titration in accordance with the standard ASTM-D6304.
# [3] = Specific gravity by hydrometer, ASTM-D891; type: physicochemical
# Description: The specific gravity may be determined by means of a hydrometer in accordance with the standard ASTM-D891.
# [4] = Vapour pressure by ebulliometry, ASTM-E1719; type: physicochemical
# Description: The vapour pressure may be determined by ebulliometry in accordance with the standard ASTM-E1719.
# [5] = Solubility of 2-ethyltetrahydroanthrahydroquinone in tested solvents (protocol of the patent); settings: 2-THEAHQ dissolved in the tested lactone solvent; hydrogenation of parent quinone, cooled until precipitation, liquid chromatography
# Description: In the following examples, the solubilities of 2-ethyltetrahydroanthrahydroquinone (2-THEAHQ) were tested in different solvents in accordance with the protocols detailed below.
# For 2-ethyltetrahydroanthrahydroquinone, the solubilities were determined by dissolving a weighed amount of the parent quinone in the tested solvent. After the addition of a Pd-based catalyst to the solution, the mixture was hydrogenated until hydrogen absorption ceases, and then cooled until precipitation occurs.
# The samples were analysed by liquid chromatography. Reference mixtures were prepared for calibration.
Compound,Flash point (° C.) [1],Solubility in water (mg/kg) [2],Specific gravity [3],Vapour pressure (Pa) [4],Solubility of 2-THEAHQ [5],Solubility in water [2]
CC1CC(=O)O1 (stereo not drawn) [β-butyrolactone],74 °C,158.9 10^3 mg/kg,1.076,212 Pa,–,–
O=C1CCO1 [β-propiolactone],70 °C,–,1.137,418 Pa,70 mg/mL,–
O=C1CCCO1 [γ-butyrolactone],97 °C,484.3 10^3 mg/kg,1.136,87 Pa,–,–
CCCCC1CCC(=O)O1 (stereo not drawn) [γ-octalactone],–,–,–,–,281 mg/mL,–
CCCCCCCC1CCCC(=O)O1 (stereo not drawn) [δ-dodecalactone],168 °C,–,0.962,0.05 Pa,276 mg/mL,1113 mg/kg
